Assay in all cases: normalised viability (% of control), CellTiter-Blue; higher = more viable cells (about 100 = DMSO control)
What all share (settings): incubation time: 72 h

In one assay the test system is CAL-148. The method, then: (§1)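 DSRT, CellTiter-Blue viability, 72 h incubation. Signal is normalised to DMSO and benzethonium chloride controls. Value is the normalised response at dose 8.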
The test system of a further assay is CAL-51. The procedure: as §1
For a further assay, the system named is CAL-85-1. The procedure:
as §1

The subject of another assay is DU-4475. The procedure: as §1
For the next assay, the system named is HDQ-P1. The method, then:
as §1

A further assay concerns MDA-MB-453. The method, then:
as §1

Consider `COc1cc2nccc(Oc3ccc(NC(=O)C4(C(=O)Nc5ccc(F)cc5)CC4)cc3)c2cc1OC` [Cabozantinib] (300 nM), for which the normalised viability came to 94.7% with CAL-148; 104% in the assay with CAL-51; 86.3% in the assay on CAL-85-1; 103% with DU-4475; 72.6% in the assay on HDQ-P1; 112% in the assay with MDA-MB-453.

As for `Cn1c(CCCC(=O)O)nc2cc(N(CCCl)CCCl)ccc21` [Bendamustine] (3000 nM), the normalised viability was found to be 101% with CAL-148; 112% with CAL-51; 93.8% in the assay with CAL-85-1; 105% in the assay on DU-4475; 101% in the assay with HDQ-P1; 113% with MDA-MB-453.

Turning to `CC1(C)NC(=O)N(c2ccc([N+](=O)[O-])c(C(F)(F)F)c2)C1=O` [Nilutamide] (3000 nM), the normalised viability in the assay with CAL-148 is 99.1%; in the assay with CAL-51, 96.9%; in the assay with CAL-85-1 it was 96.8%; in the assay with DU-4475, 106%; in the assay on HDQ-P1 it was 127%; in the assay on MDA-MB-453 it was 99%.

For `NCC(=O)CCC(=O)O` [Aminolevulinic acid] (3000 nM), the normalised viability is 96.7% with CAL-148; 109% in the assay on CAL-51; 88.7% in the assay with CAL-85-1; 110% with DU-4475; 103% with HDQ-P1; 122% in the assay with MDA-MB-453.

With `CO[C@H]1/C=C\C=C(/C)C(=O)NC2=CC(=O)C(NCCN(C)C)=C(C[C@@H](C)C[C@H](OC)[C@H](O)[C@@H](C)/C=C(\C)[C@@H]1OC(N)=O)C2=O` [Alvespimycin] (300 nM), the normalised viability in the assay with CAL-148 amounted to 14.8%; in the assay with CAL-51 it was 18.2%; in the assay on CAL-85-1, 24.4%; in the assay on DU-4475 it was 1.07%; with HDQ-P1 it was 33.1%; in the assay on MDA-MB-453 it was 8.24%.

Take `CC(C)Cn1cnc2c(N)nc3ccccc3c21` [Imiquimod] (3000 nM): the normalised viability in the assay with CAL-148 stood at 95.5%; in the assay on CAL-51 it was 107%; with CAL-85-1, 107%; with DU-4475 it was 107%; with HDQ-P1, 89.1%; with MDA-MB-453 it was 95.7%.

`NC(=O)Nc1cc(-c2cccc(F)c2)sc1C(=O)N[C@H]1CCCNC1` [AZD 7762] (300 nM): the normalised viability worked out at 96.1% in the assay with CAL-148; 94.1% with CAL-51; 45.4% with CAL-85-1; 118% with DU-4475; 76.6% with HDQ-P1; 46.8% with MDA-MB-453.

Take `C[C@@H](Oc1cc(-c2cnn(C3CCNCC3)c2)cnc1N)c1c(Cl)ccc(F)c1Cl` [Crizotinib] (3000 nM): the normalised viability in the assay with CAL-148 came out at 76.8%; in the assay on CAL-51, 62.9%; in the assay with CAL-85-1, 66.1%; in the assay on DU-4475, 78.7%; in the assay on HDQ-P1, 86.7%; in the assay on MDA-MB-453, 57.3%.

For `Cc1ccc(C(=O)N(CCCN)[C@@H](c2oc3cc(Cl)ccc3c(=O)c2Cc2ccccc2)C(C)C)cc1` (300 nM), the normalised viability stood at 16.8% in the assay with CAL-148; 26.7% in the assay with CAL-51; 32.4% in the assay on CAL-85-1; 31.2% with DU-4475; 62.6% with HDQ-P1; 24.8% in the assay on MDA-MB-453.

In the case of `CCC1=C[C@@H]2CN(C1)Cc1c([nH]c3ccccc13)[C@@](C(=O)OC)(c1cc3c(cc1OC)N(C)[C@H]1[C@@](O)(C(=O)OC)[C@H](OC(C)=O)[C@]4(CC)C=CCN5CC[C@]31[C@@H]54)C2` [Vinorelbine] (3000 nM), the normalised viability stood at 20.1% in the assay with CAL-148; 16.6% in the assay on CAL-51; 37.1% in the assay on CAL-85-1; 15.8% in the assay with DU-4475; 32.7% in the assay with HDQ-P1; 39.8% in the assay with MDA-MB-453.

On to `Cn1c(Nc2ccc(C(F)(F)F)cc2)nc2cc(Oc3ccnc(-c4ncc(C(F)(F)F)[nH]4)c3)ccc21` [RAF265] (300 nM), for which the normalised viability with CAL-148 amounted to 85.5%; with CAL-51, 66.9%; in the assay on CAL-85-1, 71.5%; in the assay with DU-4475, 71.3%; in the assay on HDQ-P1, 39.4%; in the assay on MDA-MB-453 it was 92.5%.

As to `O=C1CCC(N2C(=O)c3ccccc3C2=O)C(=O)N1` (stereo not given) [Thalidomide] (3000 nM), the normalised viability came to 113% in the assay on CAL-148; 89.8% with CAL-51; 91.7% with CAL-85-1; 110% in the assay on DU-4475; 99.7% in the assay on HDQ-P1; 99.4% in the assay with MDA-MB-453.

With `Clc1ccc(Nc2nnc(Cc3ccncc3)c3ccccc23)cc1` [Vatalanib] (3000 nM), the normalised viability in the assay on CAL-148 was 75%; in the assay with CAL-51 it was 104%; in the assay on CAL-85-1 it was 94%; in the assay with DU-4475, 111%; with HDQ-P1 it was 91.8%; with MDA-MB-453, 75.2%.

On to `N.N.[Cl][Pt][Cl]` [Cisplatin] (3000 nM), for which the normalised viability was found to be 101% in the assay on CAL-148; 106% in the assay on CAL-51; 99.1% in the assay on CAL-85-1; 96.8% with DU-4475; 104% in the assay with HDQ-P1; 100% with MDA-MB-453.

On to `Cc1ccc(-n2nc(C(C)(C)C)cc2NC(=O)Nc2ccc(OCCN3CCOCC3)c3ccccc23)cc1` [Doramapimod] (3000 nM), for which the normalised viability in the assay on CAL-148 was determined as 93.1%; in the assay on CAL-51 it was 102%; with CAL-85-1, 76%; in the assay with DU-4475, 114%; in the assay on HDQ-P1, 75.8%; in the assay on MDA-MB-453, 96.8%.

For the compound `O=P1(NCCCl)OCCCN1CCCl` (stereo not given) [Ifosfamide] (3000 nM), the normalised viability in the assay on CAL-148 was found to be 106%; with CAL-51, 97.4%; with CAL-85-1, 92.9%; with DU-4475, 87.2%; in the assay on HDQ-P1, 107%; with MDA-MB-453 it was 112%.

For the compound `N[C@@H](CSC(c1ccccc1)(c1ccccc1)c1ccccc1)C(=O)O` [S-trityl-L-cysteine] (12000 nM), the normalised viability with CAL-148 was 106%; with CAL-51, 98.6%; in the assay with CAL-85-1 it was 36.7%; in the assay with DU-4475 it was 114%; in the assay with HDQ-P1, 84.6%; in the assay on MDA-MB-453, 99.1%.

For `CN(N=O)C(=O)N[C@@H](C=O)[C@@H](O)[C@H](O)[C@H](O)CO` [Streptozocin] (3000 nM), the normalised viability was found to be 98.7% in the assay on CAL-148; 108% with CAL-51; 97.8% with CAL-85-1; 95.3% in the assay with DU-4475; 110% in the assay on HDQ-P1; 109% with MDA-MB-453.

On to `CNCc1ccc(-c2[nH]c3cc(F)cc4c3c2CCNC4=O)cc1` [Rucaparib] (3000 nM), for which the normalised viability in the assay on CAL-148 turned out to be 87%; in the assay with CAL-51 it was 102%; in the assay on CAL-85-1, 79.3%; in the assay on DU-4475, 87.3%; in the assay with HDQ-P1, 82.9%; with MDA-MB-453, 87.5%.

Regarding `COc1cc([C@@H]2c3cc4c(cc3[C@@H](O[C@@H]3O[C@@H]5CO[C@@H](C)O[C@H]5[C@H](O)[C@H]3O)[C@H]3COC(=O)[C@H]23)OCO4)cc(OC)c1O` [Etoposide] (3000 nM), the normalised viability worked out at 41.3% with CAL-148; 26.4% in the assay on CAL-51; 76.9% in the assay with CAL-85-1; 3.63% with DU-4475; 78.7% with HDQ-P1; 89% with MDA-MB-453.

These data come from the supplement of paper PMC4862054.
